# Test results taken from PMC6855808, “Direct binding of phosphatidylglycerol at specific sites modulates desensitization of a ligand-gated ion channel” (eLife, 2019).
# Several values for one entry are separate records, joined by “and”; a condition that tells them apart may be missing. Equal entries are not always repeated. Where two headings read alike, the source gives them in different places.
# B1: Erwinia ligand-gated ion channel (ELIC), wild type (natural protein, Erwinia chrysanthemi, UniProt P0C7B7 1-321, looked up)
# chain: APADNAADARPVDVSVSIFINKIYGVNTLEQTYKVDGYIVAQWTGKPRKTPGDKPLIVENTQIERWINNGLWVPALEFINVVGSPDTGNKRLMLFPDGRVIYNARFLGSFSNDMDFRLFPFDRQQFVLELEPFSYNNQQLRFSDIQVYTENIDNEEIDEWWIRKASTHISDIRYDHLSSVQPNQNEFSRITVRIDAVRNPSYYLWSFILPLGLIIAASWSVFWLESFSERLQTSFTLMLTVVAYAFYTSNILPRLPYTTVIDQMIIAGYGSIFAAILLIIFAHHRQAMGVEDDLLIQRCRLAFPLGFLAIGCVLVIRGITL
# notes: Erwinia ligand-gated ion channel (ELIC), a pentameric ligand-gated ion channel of Erwinia chrysanthemi; expressed from pET26-MBP-ELIC (Addgene plasmid 39239); MBP was removed with HRV-3C protease before size exclusion; also called ELIC WT; WT; source: OverExpress C43 (DE3) E. coli, purified (membranes solubilized in DDM, amylose resin, HRV-3C digestion, size exclusion)
# Columns and labels:
# ELIC WT [1] = experiment: Native MS phospholipid binding to delipidated ELIC in C10E5; set-up: species or system Erwinia chrysanthemi; conditions: binomial binding model, 32 sites of equal affinity; 1 μM ELIC in C10E5; read-out: Dissociation constant K
# Protocol: Native MS analysis was similar to previous descriptions for other membrane proteins ([Gault et al., 2016]). For analysis of ELIC in DDM, 30 μl of purified protein in 0.02% DDM at ~1 mg/ml was buffer exchanged into 200 mM ammonium acetate pH 7.5% and 0.02% DDM using Biospin six gel filtration spin columns (Bio-Rad, Hercules, CA). 2 μl of buffer exchanged ELIC was loaded into a borosilicate capillary emitter (Thermo Scientific, Waltham, MA), and analyzed by static nanospray on a Thermo QExactive EMR mass spectrometer. The following parameters were used to resolve the ELIC pentamer and minimize dissociation into tetramer and monomer: capillary voltage of 1.2 kV, capillary temperature of 200°C, ion transfer optics set with the injection flatapole, inter-flatapole lens, bent flatapole, transfer multiple as 8, 7, 6, 4 V, respectively, resolution 8,750, AGC target 3 × 10^6, trap pressure set to maximum, CID 200 V, and CE 100 V. For analysis of ELIC in C10E5, ELIC delipidated by injecting 300 μg onto a Sephadex 200 10/300 column (GE Healthcare) at 0.5 ml/min pre-equilibrated with Buffer A, 10% glycerol, and 0.06% C10E5 (Anatrace). 30 μl aliquots were then buffer exchanged to 100 mM ammonium acetate pH 7.5, 0.06% C10E5 using Biospin six columns, and diluted to 0.2 mg/ml. MS measurements on the QExactive EMR were performed with the parameters listed above except: capillary temperature 100°C, CID 75 V and CE 200 V. For lipid binding measurements, stocks of POPG lipid were prepared at 2× the concentration of POPG being tested in 100 mM ammonium acetate pH 7.5% and 0.06% C10E5. Lipid stocks were then mixed with 0.4 mg/ml ELIC in a 1:1 vol ratio for a final concentration of 1 μM ELIC, and samples were analyzed after >5 min incubation.
# MS spectra were deconvoluted using UniDec ([Marty et al., 2015]); deconvolution of spectra with bound lipid was restricted to the 26+ to 22+ charge states (Figure 1—figure supplement 3). Peak heights of apo and lipid-bound species were extracted from UniDec, and analyzed by two approaches. The average number of bound lipids was determined by the following relationship:(1) Averagenumberboundlipid=∑n=0kn\cdot In/∑n=0kIn where n is the number of bound lipids and In is the deconvoluted peak height of ELIC with n bound lipids. Peak heights of apo and lipid-bound species were also plotted as mole fraction versus the number of bound lipids (Figure 1—figure supplement 4).
# Then, the probability (B) that q sites are occupied out of N total sites is given by the binomial probability function:(3) Bq=N!/q!N-q!p^N-q(1-p)^q
# B(q) was used to determine the mole fraction of each lipid-bound species at a given [A], which was used to fit the native MS data in Excel across all [A] by setting K constant and varying N or vice versa.
# ELIC WT [2] = experiment: Sequential-mixing stopped-flow fluorescence Tl+ flux assay in liposomes; assay type: biochemical, Erwinia chrysanthemi; conditions: 5 mM cysteamine
# ELIC WT [3] = experiment: Thermal stability assay (SEC pentamer peak after heating); assay type: binding, Erwinia chrysanthemi; conditions: 1 μM ELIC in C10E5, 32°C for 15 min
# Protocol: Purified WT ELIC in C10E5 (Buffer A, 0.06% C10E5) was diluted to 1 μM in the absence or presence of various concentrations of phospholipid. Samples were analyzed without and with heating in the absence or presence of phospholipid. […] The stabilizing effect of a phospholipid was quantified as the pentamer amplitude in the presence of phospholipid (heated) divided by control (heated).
# ELIC R123Q = target: T1, ELIC R123Q (Dickeya chrysanthemi, UniProt P0C7B7, INS163G/R123Q); experiment: Excised patch-clamp recordings from giant liposomes; assay type: biochemical, Erwinia chrysanthemi; conditions: 25 mole% POPG
# T1 construct: MBP (N, cleaved yes); made in house; host or cells: OverExpress C43 (DE3) E. coli
# ELIC L238A = target: T2, ELIC L238A (Dickeya chrysanthemi, UniProt P0C7B7, L237A); experiment: as above; assay type: biochemical, Erwinia chrysanthemi; conditions: 25 mole% POPG
# T2 construct: MBP (N, cleaved yes); made in house; host or cells: OverExpress C43 (DE3) E. coli
# ELIC R301Q/R299Q = target: T3, ELIC R301Q/R299Q (Dickeya chrysanthemi, UniProt P0C7B7, R298Q/R300Q); experiment: as above; assay type: biochemical, Erwinia chrysanthemi; conditions: 25 mole% POPG
# T3 construct: MBP (N, cleaved yes); made in house; host or cells: OverExpress C43 (DE3) E. coli
# ELIC R117Q = target: T4, ELIC R117Q (Dickeya chrysanthemi, UniProt P0C7B7, INS163G/R117Q); experiment: as above; assay type: biochemical, Erwinia chrysanthemi; conditions: 25 mole% POPG
# T4 construct: MBP (N, cleaved yes); made in house; host or cells: OverExpress C43 (DE3) E. coli
# ELIC R286Q/R299Q = target: T5, ELIC R286Q/R299Q (Dickeya chrysanthemi, UniProt P0C7B7, R285Q/R298Q); experiment: as above; assay type: biochemical, Erwinia chrysanthemi; conditions: 25 mole% POPG
# T5 construct: MBP (N, cleaved yes); made in house; host or cells: OverExpress C43 (DE3) E. coli
# ELIC R301Q = target: T6, ELIC R301Q (Dickeya chrysanthemi, UniProt P0C7B7, R300Q); experiment: as above; assay type: biochemical, Erwinia chrysanthemi; conditions: 25 mole% POPG
# T6 construct: MBP (N, cleaved yes); made in house; host or cells: OverExpress C43 (DE3) E. coli
# ELIC R299Q = target: T7, ELIC R299Q (Dickeya chrysanthemi, UniProt P0C7B7, R298Q); experiment: as above; assay type: biochemical, Erwinia chrysanthemi; conditions: 25 mole% POPG
# T7 construct: MBP (N, cleaved yes); made in house; host or cells: OverExpress C43 (DE3) E. coli
# ELIC R286Q = target: T8, ELIC R286Q (Dickeya chrysanthemi, UniProt P0C7B7, R285Q); experiment: as above; assay type: biochemical, Erwinia chrysanthemi; conditions: 25 mole% POPG
# T8 construct: MBP (N, cleaved yes); made in house; host or cells: OverExpress C43 (DE3) E. coli
# ELIC WT [4] = experiment: as above; conditions: for EC50: read-out: Dose response EC50 (mM cysteamine), peak current, 0.5 mM BaCl2
# ELIC R117Q/R299Q = target: T9, ELIC R117Q/R299Q (Dickeya chrysanthemi, UniProt P0C7B7, R117Q/R298Q); experiment: as above; assay type: biochemical, Erwinia chrysanthemi; conditions: 25 mole% POPG
# T9 construct: MBP (N, cleaved yes); made in house; host or cells: OverExpress C43 (DE3) E. coli
# ELIC R123Q/R299Q = target: T10, ELIC R123Q/R299Q (Dickeya chrysanthemi, UniProt P0C7B7, R123Q/R298Q); experiment: as above; assay type: biochemical, Erwinia chrysanthemi; conditions: 25 mole% POPG
# T10 construct: MBP (N, cleaved yes); made in house; host or cells: OverExpress C43 (DE3) E. coli
# [5] = target: the molecule itself; experiment: native MS; ELIC purified in 0.02% DDM, buffer exchanged into 200 mM ammonium acetate pH 7.5, 0.02% DDM; static nanospray, Q-Exactive EMR, CID 200 V, CE 100 V; co-purified lipids bound
# [6] = read-out: Cysteamine response EC50
molecule,measurement,setting,value
"CCCCCCCC/C=C\CCCCCCCC(=O)O[C@H](COC(=O)CCCCCCCCCCCCCCC)COP(=O)([O-])OCC[N+](C)(C)C [POPC, 1-palmitoyl-2-oleoyl-phosphatidylcholine]",Kd,ELIC WT [1],280 µM
same,Fold faster rate of desensitization in POPC liposomes vs POPC:POPE:POPG liposomes,ELIC WT [2],more than 20 fold
same,Activation τ,"ELIC WT [2]; liposome composition as labelled, double exponential fit, fast component",39 ± 17 ms
same,Desensitization τ,"ELIC WT [2]; liposome composition as labelled, double exponential fit, slow component",0.42 ± 0.05 s
same,Effect on ELIC stability against thermal denaturation,ELIC WT [3],no effect
"CCCCCCCC/C=C\CCCCCCCC(=O)O[C@H](COC(=O)CCCCCCCCCCCCCCC)COP(=O)(O)OCCN [POPE, 1-palmitoyl-2-oleoyl-phosphatidylethanolamine]",Kd,ELIC WT [1],190 µM
same,Effect on ELIC stability against thermal denaturation,ELIC WT [3],no effect
NCCS [cysteamine],Activation τ,ELIC R123Q; 30 mM cysteamine,112 ± 65 ms
same,Desensitization norm current at 20 s,ELIC R123Q; 30 mM cysteamine,0.067 ± 0.015
same,Desensitization weighted τ,ELIC R123Q; 30 mM cysteamine,1.20 ± 0.39 s
same,EC50,ELIC R123Q; [6],3.7 ± 0.9 mM
same,Activation τ,ELIC L238A; 30 mM cysteamine,113 ± 51 ms
same,Desensitization norm current at 20 s,ELIC L238A; 30 mM cysteamine,0.374 ± 0.045
same,Desensitization weighted τ,ELIC L238A; 30 mM cysteamine,5.90 ± 1.37 s
same,EC50,ELIC L238A; [6],4.9 ± 1.1 mM
same,Activation τ,ELIC R301Q/R299Q; 30 mM cysteamine,71 ± 21 ms
same,Desensitization norm current at 20 s,ELIC R301Q/R299Q; 30 mM cysteamine,0.030 ± 0.017
same,Desensitization weighted τ,ELIC R301Q/R299Q; 30 mM cysteamine,0.45 ± 0.28 s
same,EC50,ELIC R301Q/R299Q; [6],3.9 ± 0.9 mM
same,Activation τ,ELIC R117Q; 30 mM cysteamine,54 ± 40 ms
same,Desensitization norm current at 20 s,ELIC R117Q; 30 mM cysteamine,0.060 ± 0.020
same,Desensitization weighted τ,ELIC R117Q; 30 mM cysteamine,1.49 ± 0.40 s
same,EC50,ELIC R117Q; [6],3.3 ± 0.9 mM
same,Activation τ,ELIC R286Q/R299Q; 30 mM cysteamine,92 ± 27 ms
same,Desensitization norm current at 20 s,ELIC R286Q/R299Q; 30 mM cysteamine,0.103 ± 0.032
same,Desensitization weighted τ,ELIC R286Q/R299Q; 30 mM cysteamine,2.08 ± 0.65 s
same,EC50,ELIC R286Q/R299Q; [6],4.7 ± 1.5 mM
same,Activation τ,ELIC R301Q; 30 mM cysteamine,72 ± 15 ms
same,Desensitization norm current at 20 s,ELIC R301Q; 30 mM cysteamine,0.045 ± 0.017
same,Desensitization weighted τ,ELIC R301Q; 30 mM cysteamine,0.66 ± 0.28 s
same,EC50,ELIC R301Q; [6],5.2 ± 0.8 mM
same,Activation τ,ELIC R299Q; 30 mM cysteamine,71 ± 27 ms
same,Desensitization norm current at 20 s,ELIC R299Q; 30 mM cysteamine,0.074 ± 0.008
same,Desensitization weighted τ,ELIC R299Q; 30 mM cysteamine,2.2 ± 0.17 s
same,EC50,ELIC R299Q; [6],4.7 ± 0.3 mM
same,Activation τ,ELIC R286Q; 30 mM cysteamine,106 ± 34 ms
same,Desensitization norm current at 20 s,ELIC R286Q; 30 mM cysteamine,0.091 ± 0.023
same,Desensitization weighted τ,ELIC R286Q; 30 mM cysteamine,1.67 ± 0.24 s
same,EC50,ELIC R286Q; [6],4.3 ± 0.4 mM
same,Activation τ,"ELIC WT [4]; 25 mole% POPG, 30 mM cysteamine",134 ms and 134 ± 50 ms
same,Desensitization norm current at 20 s,"ELIC WT [4]; 25 mole% POPG, 30 mM cysteamine, normalized to peak response",0.100 ± 0.041
same,EC50,ELIC WT [4]; 12 mole% POPG,5.3 ± 1 mM
same,EC50,ELIC WT [4]; 25 mole% POPG,5.1 ± 1.2 mM
same,EC50,ELIC WT [4]; 40 mole% POPG,6.5 ± 1.3 mM
same,Activation τ,ELIC R117Q/R299Q; 30 mM cysteamine,54 ± 26 ms
same,Desensitization norm current at 20 s,ELIC R117Q/R299Q; 30 mM cysteamine,0.025 ± 0.004
same,Desensitization weighted τ,ELIC R117Q/R299Q; 30 mM cysteamine,1.13 ± 0.24 s
same,EC50,ELIC R117Q/R299Q; [6],2.4 ± 0.7 mM
same,Activation τ,ELIC R123Q/R299Q; 30 mM cysteamine,74 ± 35 ms
same,Desensitization norm current at 20 s,ELIC R123Q/R299Q; 30 mM cysteamine,0.041 ± 0.005
same,Desensitization weighted τ,ELIC R123Q/R299Q; 30 mM cysteamine,1.66 ± 0.17 s
same,EC50,ELIC R123Q/R299Q; [6],3.7 ± 0.6 mM
B1,stoichiometry N,[5],5
